Test results published in US20200262991A1, “Method for Tuning Topology of Polymer Particles” (UNIVERSITY OF SOUTH CAROLINA, priority 2019, published 2020).

Test system: 3T3-L1 adipocytes
Assay: Oil Red O lipid content assay in differentiated 3T3-L1 adipocytes
Format: cell-based, mouse
Conditions: 60 μM free resveratrol dissolved in ethanol, 48 hours
Description: 3T3-L1 fibroblasts (ATCC), were differentiated into adipocytes following ATCC's protocol, with slight modifications. Briefly, 3T3-L1 cells were seeded in 6 well plates at 80,000 cells/well and cultured in DMEM supplemented with 10% SuperCalf Serum and 1% Pen/Strep. 48 hours after confluence was reached, media was exchanged with “differentiation media” consisting of DMEM supplemented with 10% FBS, 10 μg/mL bovine insulin, 0.25 μM dexamethasone, and 0.5 mM IBMX. 48 hours after differentiation media was added, media was exchanged for DMEM supplemented with 10% FBS and 10 μg/mL bovine insulin. After another 48 hours, media was exchanged for DMEM supplemented with 10% FBS. Cells were then cultured until treatment with particles, which occurred 9 days after exposure to the differentiation media. […] Absorbance of extracted Oil Red O was measured at 500 nm using a spectrophotometer. Bioactivity of the resveratrol following the fabrication process was determined. Specifically, the ability of the resveratrol particles to induce lipolysis in differentiated 3T3-L1 adipocytes was determined by measuring lipid content with an Oil Red O assay. […] Lipid content was visualized with Oil Red O, a lipophilic dye, (FIG. 3 at A-F) and lipid content was quantified by extracting the dye (FIG. 3 at G) and measuring the solution's absorbance (FIG. 3 at H).

Structure (SMILES): Oc1ccc(/C=C/c2cc(O)cc(O)c2)cc1 [resveratrol, 3,5,4′-trihydroxy-trans-stilbene]
- Oil Red O staining (intracellular lipid content): decreased Oil Red O staining
